According to patent publication US6204005A, “Immunoassay for toxic congeners of polychlorinated biphenyls” (priority 1995, dated 2001):

Assays:
[1] = relative to 2,3,7,8-TCDD = 1.0; cited from earlier work
[2] = system: Hapten VII sera (polyclonal antibodies); assay: Sera direct EIA with Hapten VII sera and competitor enzyme conjugate; assay type: binding, mice; conditions: for Assay sensitivity versus Hapten VII enzyme conjugate based assay: in words, Table 6
Method: The competitors A-E and Hapten VII were conjugated to the enzyme, amino modified Horseradish Peroxidase (HRP) (horseradish peroxidase commercially available from Sigma Chemical Co. (No. P-6782), St. Louis, Mo.; amino modified per R. Hsiao and H. Royer, Archives Biochem. Biophys., 198, 379-385 (1979) to give 6-24 free amines), using the carbodiimide mediated carboxyl activation procedure described for Hapten VII in Example 24. Hapten and competitor load were determined by UV/Vis spectroscopy, also as described for Hapten VII.
The direct EIA (immoblized antibody and competitor enzyme conjugate) was performed as follows. Serum or monoclonal antibody supernatant stored at -20° C. was diluted 1,000-40,000 fold with PBS which contained 0.1% Tween-20. This solution was dispensed (500 ul) into donkey anti-mouse second antibody coated tubes (DAM Tubes commercially available from Millipore Corp., Bedford, Mass.) and incubated at room temperature overnight. The antisera solution was decanted from the tubes and the tubes washed 3 times with distilled water. Non-specific sites in the tubes were blocked with 600 ul of BSA blocking buffer (EIA Blocking Buffer commercially available from Millipore Corp., Bedford, Mass.) and incubated for 2 hours at room temperature or overnight at 4° C. The blocking buffer was decanted and the tubes allowed to dry under ambient room conditions for at least 2 hours. The assay was performed by adding 500 ul of assay diluent (1% methanol (v/v) and 0.005% Tween-20 (w/v) in distilled water) to the required number of tubes followed by 10 ul of a methanol solution of the analyte (PCB congener). After a 5 minute incubation at room temperature, the solution was decanted and the tubes rinsed 3-4 times with tap water. The horseradish peroxidase competitor or Hapten VII conjugates were diluted 1,000-60,000 fold from 2-5 mg/ml stock solutions in PBS with conjugate diluent (Enzyme Conjugate Diluent commercially available from Millipore Corp., Bedford, Mass.). The enzyme conjugate (200 ul) was added to the tubes followed by a 5 minute incubation at room temperature. The conjugate solution was decanted and the tubes rinsed 3-4 times with tap water. Enzyme substrate solution (500 ul, KPL No. 50-76-04 commercially available from KPL Laboratories, Gaithersburg, Md.) was added and the tubes were incubated at room temperature for 5-15 minutes. The enzyme reaction was stopped with the addition of 500 ul of 1N HCl. The OD of the solution was determined at 450 nm. The data was plotted using Log (Congener Concentration) versus B/Bo (B=Sample Absorbance, Bo=Sample Blank Absorbance).
The direct EIA (Method 19) was used to evaluate sera samples taken on day 120.

[3] = system: antibody in serum immobilized on goat anti-rabbit second antibody coated tubes; assay: Enzyme immunoassay (EIA) with HRP competitor or Hapten I conjugates, Aroclor 1248 analyte (Method D); assay type: binding; conditions: for Assay Response (I50): assay solution concentration of Aroclor 1248 producing 50% reduction in assay control signal, HRP conjugate of the listed competitor; for Relative Response: improvement in I50 sensitivity compared to homologous (Hapten I) based assay
Method: Serum stored at -20° C. was diluted 1,000-40,000 fold with PBS which contained 0.1% Tween-20. This solution was dispensed (500 μl) into goat anti-rabbit second antibody coated tubes (GAR Tubes commercially available from Millipore Corp., Bedford, Mass.) and incubated at room temperature overnight. The antisera solution was decanted from the tubes and the tubes were washed 3 times with distilled water. Non-specific sites in the tubes were blocked with 600 μl of a BSA blocking buffer (EIA Blocking Buffer commercially available from Millipore Corp., Bedford, Mass.) and incubated for 2 hours at room temperature or overnight at 4° C. The blocking buffer was decanted and the tubes allowed to dry under ambient room conditions for 2 hours or overnight. The assay was performed by adding 500 μl of assay diluent (1% methanol (v/v) and 0.005% Tween-20 (w/v) in distilled water) to the required number of tubes followed by 10 μl of a methanol solution which contained 0-50 ppm of Aroclor 1248. After a 5 minute incubation at room temperature, the solution was decanted and the tubes rinsed 3-4 times with tap water. The horseradish peroxidase-(HRP) competitor conjugate or Hapten I conjugates were diluted 100-100,000 fold from 2-5 mg/ml stock solutions in PBS with conjugate diluent (Enzyme Conjugate Diluent commercially available from Millipore Corp., Bedford, Mass.). Enzyme-competitor conjugate was added in 200 μl and the tubes were incubated at room temperature for 5 minutes. The conjugate solution was decanted and the tubes rinsed 3-4 times with tap water. Enzyme substrate solution (500 μl, KPL No. 50-76-04 commercially available from KPL Laboratories, Gaithersburg, Md.) was added and the tubes were incubated at room temperature for 3-15 minutes. The enzyme reaction was stopped with the addition of 500 μl of 1N HCl. The OD of the solution was determined at 450 nm and the I50 values were determined using a correlation of Log (Aroclor 1248 Concentration in the assay solution in parts per billion=ppb) versus B/Bo ratio where B=Sample Absorbance and Bo=Absorbance of the Blank Sample.
The competitors and Hapten I were conjugated to the enzyme, amino modified Horseradish Peroxidase (HRP) (horseradish peroxidase commercially available from Sigma Chemical Co. (No. P-6782), St. Louis, Mo.; amino modified per ref R. Hsiao and H. Royer, Archives Biochem. Biophysics, 198, 379-385 (1979) to give 6-24 free amines), using the carbodiimide mediated carboxyl activation procedure described for Hapten I in Example 5.
EIA analysis of Aroclor 1248 (Method D) was performed using horseradish peroxidase (HRP) Conjugates of the competitors illustrated in FIG. 4.

[4] = Table 7, Hapten VII sera and Competitor D direct EIA
[5] = Table 6, I50 of analyte 3,3',4,4'-tetrachlorobiphenyl with the listed competitor, Hapten VII sera

SMILES | TEF [1] | Assay Response (I50) [3] [ppb] | other results
Clc1ccc(-c2cc(Cl)c(Cl)cc2Cl)c(Cl)c1 [2,2',4,4',5-pentachloro-] | less than 0.00001 | – | –
Clc1ccc(Cl)c(-c2cc(Cl)ccc2Cl)c1 [2,2',5,5'-tetrachloro] | less than 0.00001 | – | I50 [2, 4]: > 20,000 ppb
Clc1ccc(Cl)c(-c2ccccc2Cl)c1 [2,2',5-trichloro-] | less than 0.00001 | – | –
Clc1cc2c(cc1Cl)Oc1cc(Cl)c(Cl)cc1O2 [2,3,7,8-TCDD, 2,3,7,8-tetrachlorodibenzo-p-dioxin] | 1.0 | – | –
Clc1ccc(-c2ccccc2Cl)cc1 [2,4'-dichloro-] | less than 0.00001 | – | –
Clc1ccc(-c2ccc(Cl)cc2Cl)cc1 [2,4,4',trichloro-] | less than 0.00001 | – | –
Clc1ccc(-c2ccc(Cl)cc2)cc1 [4,4'-dichloro] | – | – | I50 [2, 4]: 4,300 ppb
Clc1ccc(-c2cc(Cl)c(Cl)c(Cl)c2)cc1 [BZ No. 81, 3,4,4',5-tetra] | 0.01 | – | –
Clc1ccc(-c2ccc(Cl)c(Cl)c2Cl)cc1Cl [BZ No. 105, 2,3,3',4,4'-penta] | 0.001 | – | –
Clc1ccc(-c2cc(Cl)c(Cl)c(Cl)c2Cl)cc1 [BZ No. 114, 2,3,4,4',5-penta] | 0.0001 | – | –
Clc1ccc(-c2cc(Cl)c(Cl)cc2Cl)cc1Cl [BZ No. 118, 2,3',4,4',5-penta] | 0.00 | – | –
Clc1ccc(-c2cc(Cl)c(Cl)c(Cl)c2)c(Cl)c1 [BZ No. 123, 2,3',4,4',5'-penta] | 0.001 | – | –
Clc1ccc(-c2cc(Cl)c(Cl)c(Cl)c2Cl)cc1Cl [BZ No. 156, 2,3,3',4,4',5-hexa] | 0.001 | – | –
Clc1cc(-c2ccc(Cl)c(Cl)c2Cl)cc(Cl)c1Cl [BZ No. 157, 2,3,3',4,4',5-hexa] | 0.00002 | – | –
Clc1cc(Cl)c(-c2cc(Cl)c(Cl)c(Cl)c2)cc1Cl [BZ No. 167, 2,3',4,4',5,5-hexa] | 0.001 | – | –
Clc1cc(-c2cc(Cl)c(Cl)c(Cl)c2)cc(Cl)c1Cl [BZ No. 169, 3,3',4,4',5,5-hexa] | 0.05 | – | –
Clc1cc(-c2cc(Cl)c(Cl)c(Cl)c2Cl)cc(Cl)c1Cl [BZ No. 189, 2,3,3',4,4',5,5'-hepta] | 0.001 | – | –
O=C(O)CCc1ccc(Cl)c(Cl)c1 [Competitor 9] | – | 47 | Relative Response [3]: 12 fold
O=C(O)CCCCc1cc(Cl)ccc1Cl [Competitor 11] | – | 18 | Relative Response [3]: 32 fold
O=C(O)CCCC(=O)c1ccc(Cl)c(Cl)c1 [Competitor 12] | – | 23 | Relative Response [3]: 24 fold
O=C(O)CCCC(=O)Nc1ccc(Cl)c(Cl)c1 [Competitor 13] | – | 2000 | Relative Response [3]: < 1 fold
O=C(O)C=Cc1ccc(Cl)c(Cl)c1 [Competitor 14] | – | 64 | Relative Response [3]: 9 fold
O=C(O)CCCOc1ccc(Cl)cc1Cl [Competitor 15] | – | 49 | Relative Response [3]: 12 fold
O=C(O)CCCOc1ccc(Cl)c(Cl)c1 [Competitor 16] | – | 31 | Relative Response [3]: 18 fold
O=C(O)CCCSc1cc(Cl)ccc1Cl [Competitor 17] | – | 33 | Relative Response [3]: 18 fold
O=C(O)CCCOc1ccc(Cl)c(Cl)c1 [Competitor B] | – | – | I50 [2, 5]: 3.5 ppb; Assay sensitivity versus Hapten VII enzyme conjugate based assay [2]: significantly more sensitive
O=C(O)CCCSc1cc(Cl)ccc1Cl [Competitor C] | – | – | I50 [2, 5]: 1.5 ppb; Assay sensitivity versus Hapten VII enzyme conjugate based assay [2]: significantly more sensitive
O=C(O)CCCC(=O)c1ccc(Cl)c(Cl)c1 [Competitor D] | – | – | I50 [2, 5]: 3 ppb; Assay sensitivity versus Hapten VII enzyme conjugate based assay [2]: significantly more sensitive
O=C(O)CCCCCOc1ccc(-c2cc(Cl)c(Cl)cc2Cl)c(Cl)c1 [Hapten I, 6-(2,2',4',5'-Tetrachlorobiphenyloxy)-4-yl hexanoic acid] | – | 570 | –
O=C(O)CCCCCOc1ccc(-c2ccc(Cl)c(Cl)c2)cc1Cl [Hapten VII, 6-(3,3',4'-Trichlorobiphenyloxy)-4-yl hexanoic acid] | – | – | I50 [2, 5]: 30-40 ppb
